In patent US9206103B2, “Materials and methods for reduction of protein tau and treatment of neurodegenerative diseases” (UNIVERSITY OF SOUTH FLORIDA, priority 2010, dated 2015):

What was measured:
Hsp70 ATPase = details: previously shown; cited from earlier work
tau [1] = assay: Western blot of tau levels in HeLa cells stably overexpressing tau (HeLa-C3); format: cell-based; details: for tau levels, effect of chirality: HeLa-C3, similar concentrations of enriched and racemic myricanol
Protocol: (§1) HeLa cells stably expressing VS-tagged 4R0N tau were maintained under G418 selection in Opti-Mem plus 10% FBS (complete media; Invitrogen) as previously described (Jinwal et al. (2009) J Neurosci 29, 12079-12088). IMR32 cells were maintained in Opti-mem plus 10% FBS and 2% 200 mM L-glutamine (Cellgro, Mediatech, Inc, Herndon, Va.). IMR32, M17, and H4 cells were maintained in Opti-mem plus 10% FBS and 2% 200 mM L-glutamine (Cellgro, Mediatech, Inc., Herndon, Va.). All cells were treated as indicated and harvested as previously described (Jinwal et al. (2009) J Neurosci 29, 12079-12088).
(§2) Protein levels were determined by using the Peirce BCA kit. Western blotting was performed by running SDS-PAGE, followed by transfer onto Immobilon-P (Millipore), as previously described (Dickey et al. (2005) Curr Alzheimer Res 2, 231-23; Koren et al. (2010) J. Bio. Chem. 285, 2498-2505).
(§3) To assess the effects of the aqueous bayberry extract on overexpressed and endogenous tau levels, a HeLa cell line stably transfected with tau (HeLa-C3) and a human IMR32 cell line derived from hippocampal neurons were treated with the bayberry extract at indicated doses for four hours. The hippocampus is the region first affected by tau deposition in Alzheimer's disease.
Briefly, the EtOH extract was subjected to acid hydrolysis to enrich the aglycone component of the extract, and was then fractionated via medium pressure liquid chromatography (MPLC). The bayberry crude extract was separated into 8 UV-active fractions by MPLC) (FIG. 4A). The MPLC extraction method was designed to identify UV active flavonoids such as myricetin).
To investigate the effect of chirality on anti-tau activity, HaLa-C3 cells were treated with the isolated (+)-αR,11S-myricanol (86% ee) and commercially available “racemic” myricanol (actually 9% ee) at the indicated concentrations.

[2] = Lactate dehydrogenase release assay for myricanol; format: cell-based
tau [3] = assay: Western blot of endogenous tau levels in IMR32 cells; format: cell-based, human; details: IMR32 hippocampus-derived cells
Protocol: as §1, §2, §3

tau [4] = assay: Ex-vivo murine brain slice cultures, Western blot of tau levels; format: cell-based, mice; details: murine brain slices
Protocol: HeLa cells stably overexpressing tau (HeLa-C3; FIG. 2A) and IMR32 cells with endogenous tau levels (FIG. 2B) were treated for 4 hrs with aqueous bayberry extract at 0, 21, 35, 70 μg/ml (0, 0.3, 0.5, and 1.0% by volume). […] Tau levels are shown as a percentage of vehicle-treated cells ±SD. […] Treatments on whole brain murine slice cultures were performed in duplicate at doses of 0, 9, 18, 35, 70, 105, 140 μg/ml (0, 0.125, 0.25, 0.5, 1.0, and 2.0% by volume) of the bayberry extract. Each point in the graph (FIG. 2E) to the right represents the average tau reductions (n=8 slices) for all four mice at the given doses relative to the average vehicle ±SD. *p<0.05 by student's t test.
4 non-transgenic 5-month-old mice were decapitated and their brains were quickly removed. 400 μm coronal sections were made using a vibratome as previously described (Jinwal et al. J. Neurosci. 2009, 29, 12079-12088; Qiu et al. J. Neurosci. 2006, 26, 12943-12955; Mirnikjoo et al. J. Biol. Chem. 2001, 276, 10888-10896. NP100572Z). […]

## O=c1c(O)c(-c2cc(O)c(O)c(O)c2)oc2cc(O)cc(O)c12 [myricetin]
Hsp70 ATPase
  inhibition of Hsp70 ATPase activity: inhibitor of Hsp70 ATPase activity

## COc1c2cc(c(O)c1OC)CCCC[C@@H](O)CCc1ccc(O)c-2c1 (racemic) [(+/−)-myricanol, reference compound]
Tau [1]
  tau levels, effect of chirality: no activity

## COc1c2cc(c(O)c1OC)CCCC[C@@H](O)CCc1ccc(O)c-2c1 [myricanol]
Tau [1]; HeLa-C3, NH4Cl 20 mM pre-treatment
  tau reduction after pre-treatment with autophagy inhibitor: abrogated tau reductions
Tau [1]; HeLa-C3, epoxomicin 0.3 μM pre-treatment
  tau reduction after pre-treatment with proteasomal inhibitor: abrogated tau reductions
Tau [1]; comparison stated in the description
  reduction of intracellular tau levels compared with myricetin: more effectively reduces intracellular tau levels than myricetin
[2]
  toxicity by lactate dehydrogenase release: little toxicity

## COc1c2cc(c(O)c1OC)CCCC[C@H](O)CCc1ccc(O)c-2c1 [(+)-αR,11S-myricanol]
Tau [1]; HeLa-C3, Western blot, read-out: EC50 for reduction of tau levels
  EC50: 35 µM
Tau [1]; HeLa-C3, overexpressed tau
  reduction of tau levels: potently reduced tau levels
Tau [1]
  tau levels, effect of chirality: reduced significantly
Tau [3]
  reduction of tau levels: potently reduced tau levels
Tau [4]
  reduction of tau levels: potently reduced tau levels
